Reference: patent publication US8877773B2, “Methods for treating chronic obstructive pulmonary disease” (Indiana University Research and Technology Corporation, priority 2009, dated 2014)
“Also recorded” adds a separate entry of the source.

Key:
[1] = test system: panic-prone (1-AG treated) rats; assay: Sodium lactate (NaLac) challenge in panic-prone rats: radio-telemetry of locomotor and cardiovascular (HR, MAP) responses; type: in vivo, rat
Experimental: Telemetry probes (Data Science International, St. Paul Minn.) were surgically implanted into the abdomen of anaesthetize rats to measure locomotor responses. Cardiovascular responses were measured by a femoral arterial line connected to the telemetric probe which contained a pressure transducer (Data Science International, St. Paul Minn.).
The minipump was then sutured into place subcutaneously at the nape of the neck. The concentration of the solutions was such that 3.5 nmol/[…] per hour of 1-AG or d-AG was infused continuously into the DMH/PeF region for the remainder of the given experiment. In the case of the siRNA experiments specialized T-cannulae were implanted permitting access to a removable 28 g injector to direct siRNA injections to the same location as the 1-AG infusions. Additionally these rats had guide cannulae directed to the opposite DMH/PeF for bilateral infusion of siRNA.
Rats received intravenous (i.v.) infusions (10 ml over 15 min of either 0.5M NaLac or 0.9% isotonic saline (when applicable)) using a syringe pump at least five days following the initiation of 1-AG or d-AG infusions. Once a stable baseline was achieved, i.v. infusions began and cardiovascular and activity data were recorded for 15 min (similar to clinical NaLac infusions).
Cardiovascular responses (i.e., MAP and HR) were measured by a femoral arterial line connected to a telemetric probe which contained a pressure transducer (Cat. no. C50-PXT, Data Science International (DSI) St. Paul Minn.). […] MAP and HR were recorded continuously in freely moving conscious rats and are expressed as a 20 min time course. The data reported are changes in HR and MAP from the average of the baseline (t−5 to t−1) from each rat. […]
In experiments 4-6, rats were made panic vulnerable with 1-AG. 5 days after 1-AG onset, in a counterbalanced design, rats received intraperitoneal (i.p.) injections of treatment drug or vehicle 30 min prior to i.v. infusions. […] In experiment 5, baseline in an open field (OF) behavior test of anxiety was assessed (n=8) prior to 1-AG infusions. […] Immediately following the NaLac challenge, rats were placed in the OF test. […] In experiment 6,1-AG treated rats received an injection of an alternative ORX1 receptor antagonist (30 mg/kg SB408124 (N-(6,8-Difluoro-2-methyl-4-quinolinyl)-N′-(4-(dimethylamino)phenyl)urea), Tocris, in 0.2 ml/100 g volume DMSO, n=4) or vehicle (0.2 ml/100 g volume DMSO, n=6) 30 min prior to NaLac. In experiment 7, control rats (no 1-AG or NaLac treatment) were assessed in a SI test.
Adult male Sprague-Dawley rats were anesthetized and surgically implanted with telemetrical probes to measure cardiovascular activity prior to and during lactate infusions. After a 3 day recovery, rats were anaesthetized and had osmotic minipumps (previously filled with 1-AG) stereotaxically implanted unilaterally into the DMH. […] 1960, Tocris, in 0.2 ml/100 g volume DMSO, n=12], alprazolam (3 mg/kg, Sigma, in 0.2 ml/100 g volume DMSO, n=6) or vehicle (0.2 ml/100 g volume DMSO, n=11) 30 min prior lactate challenge.

[2] = test system: panic-prone (1-AG treated) rats; assay: Sodium lactate (NaLac) challenge in panic-prone rats: open field test; type: in vivo, rat; conditions: 30 mg/kg i.p. 30 min prior to NaLac, experiment 5
Experimental: The open-field arena covered an area of 0.9 m×0.9 m, with 0.4 m high walls. The open-field arena was divided into a 6×6 grid of equally-sized squares using black tape (36 total squares) with 4 squares forming the centre; 12 squares forming the middle perimeter; and 20 squares forming the outer perimeter. The test started by placing a rat in the centre. The behavior of each rat in the open-field arena was recorded on video and scored afterwards by an observer blind to the experimental treatment of each rat. Time spent in each region of the open-field was recorded.
In experiments 4-6, rats were made panic vulnerable with 1-AG. […] In experiment 5, baseline in an open field (OF) behavior test of anxiety was assessed (n=8) prior to 1-AG infusions. […] In experiment 7, control rats (no 1-AG or NaLac treatment) were assessed in a SI test.
All adult male Sprague-Dawley rats were anesthetized and surgically implanted with telemetrical probes to measure cardiovascular activity prior to and during lactate infusions. After a 3 day recovery, baseline open field behavior was assessed (n=8), then rats were anaesthetized and had osmotic minipumps (previously filled with 1-AG) stereotaxically implanted unilaterally into the DMH. […] Immediately following the lactate challenge, the rats were assessed for anxiety using the open field test.

[3] = test system: panic-prone (1-AG treated) rats; assay: Defensive burying (defensive shock) test after NaLac challenge in panic-prone rats; type: in vivo, rat; conditions: 1-AG+NaLac rats
Experimental: The defensive burying test is a validated test of experimental anxiety and defensive-like behavior in rats. For four consecutive days before defensive burying test (days 3, 4, 5 and 6 post 1-AG onset), rats were acclimated to the testing apparatus by placing them for 10 min in the testing cage (a polycarbonate rat housing cage, 30.5 cm width×30.5 cm height×61 cm length) with 2.5 cm of bedding covering the floor and a small hole centered on a short dimension of the cage 2.5 cm above the bedding to accommodate the deactivated shock probe. The shock probe was 1 cm in diameter and extended 6 cm into the cage. Along the entire length of the exposed probe, 2 un-insulated wires were wrapped in parallel (not touching) so that the rat could not touch the probe without getting a shock. […] The shock intensity was set at 0.7 mA for the entire duration of testing so that the rat received a shock whenever the prod was contacted with its forepaws or snout. […] Behavioral assessments were made using software (ODLog Macropod Software for Windows, version 2.5.2) with different keystrokes coupled to each defensive behavior to accurately measure incidence and duration of each. The repertoire of behavioral reactions during a defensive burying test is well delineated and catalogued in rats. These behaviors include: 1) burying behavior, defined as duration spent pushing, shoveling, flicking and digging sawdust towards and around the prod with rapid movements of the snout and forepaws; 2) Freezing, defined as immobility with the body motionless; 3) probe exploration, defined as time spent on half of cage with probe; 4) rearing, defined as raising the body on the hind limbs in a vertical position; 5) ambulations, defined as number of times rat crossed from side of cage with probe to other; and also 5) grooming, defined as face washing, scratching, tail biting and licking of the body.
On day 1 adult male Sprague-Dawley rats (n=3/group) were anaesthetized and had osmotic minipumps (previously filled with 1-AG) stereotaxically implanted unilaterally into the DMH/PeF. […] Behavioral assessments were made using software (ODLog Macropod Software for Windows, version 2.5.2) with different keystrokes coupled to each defensive behavior to accurately measure incidence and duration of each.

[4] = in vivo; cited from earlier work
[5] = 30 mg/kg i.p., experiment 5 (open field cohort)
[6] = i.p. 30 min prior to NaLac, SB334867/SB408124 30 mg/kg, alprazolam 3 mg/kg, experiments 4 and 6

Q: What does the source list for `Cc1nc2ccc(NC(=O)Nc3ccnc4cccnc34)cc2o1` [SB334867, N-(2-Methyl-6-benzoxazolyl)-N′-1,5-naphthyridin-4-yl urea]?
A: NaLac induced increases in heart rate (HR) [1, 5]: attenuated; NaLac induced increases in mean arterial blood pressure (MAP) [1, 5]: attenuated; NaLac induced increases in heart rate (HR) [1, 6]: attenuated; also recorded: blocked; NaLac induced increases in mean arterial blood pressure (MAP) [1, 6]: attenuated; also recorded: blocked; anxiety-like responses (decreased time spent in center of open field) after NaLac challenge [2]: attenuated; grooming in defensive burying test ([3]; 30 mg/kg i.p.): No differences were detected; rearing in defensive burying test ([3]; 30 mg/kg i.p.): No differences were detected; time spent near probe in defensive burying test ([3]; 30 mg/kg i.p.): No differences were detected; NaLac-induced freezing (immobility) in defensive burying test ([3]; 30 mg/kg i.p. 30 min prior, 30 mg/kg): completely blocked; also recorded: blocks; number of times crossed line dividing halves of test cage (mid-line crossings) ([3]; 30 mg/kg i.p., sedation indicator, 30 mg/kg): No differences were detected; blood-brain barrier passage [4]: crosses the blood-brain barrier
